The subject of assay [1] is bio-BCL-2 (BCL-2 IM) (DNA, i motif) CAGCCCCGCTCCCGCCCCCTTCCTCCCGCGCCCGCCCCT
Briefly: SPR. Conditions: K+ 100 mM; 20 mM MES, pH 5.5, 25 °C.

Assay [2] deals with BCL-2 gene promoter i-motif. Briefly: SPR binding to BCL-2 promoter i-motif. Conditions: MES buffer pH 5.5, 25 °C. The procedure:
SPR measurement was performed on a ProteOn XPR36 protein interaction array system (Bio-Rad Laboratories, Hercules, California, USA) using a Neutravidin-coated GLH sensor chip. BCL-2 i-motif binding analysis was performed following a published method without significant modification. For immobilization, 5′-biotin-labeled DNA oligomers at 800 nM annealed in 1 × MES buffer at pH 5.5 by heating at 95 °C for 5 min, were attached to a reptavidin-coated sensor chip. Compounds were prepared through serial dilution with flowing buffer (20 mM MES, 100 mM KCl, pH 5.5 for i-motif) in at least 6 concentrations, which were simultaneously injected at a flow rate of […] for a 120 s of association phase, followed by 250 s of dissociation phase at 25 °C. Langmuir model was used for fitting kinetic data, which was analyzed with ProteOn manager software. KD values were determined through equation KD = kd/ka. Compound A22 was used as a positive control, and other compounds were selected as candidates only if their KD values for binding to BCL-2 i-motif were similar to that of A22.
(In general: In SPR one partner is held on a chip, and binding of the other changes the refractive index at the surface.)

Assay [3] has as its target T1, Aβ1-42 (Homo sapiens, UniProt P05067).
T1 construct: Aβ1-42 was purchased from Gill Biochemicals Ltd (Shanghai, China); purchased Gill Biochemicals Ltd (Shanghai, China)
Briefly: Thioflavine T fluorescence spectroscopy assay (time course to 96 h). The settings on record: 20 μM compound, Aβ1-42 incubated for 96 h. The assay is classed as biochemical. The procedure: The Aβ1-42 solutions (100 μM) were co-incubated with B14 (20 μM) or Curcumin (20 μM) at 37 °C protected from light for 96 h. 30 μL of Aβ1-42 solution was taken at different time points (0 h, 10 h, 24 h, 48 h, 72 h, 96 h), mixed fully with 400 μL of ThT solution (15 μM), and incubated in the dark for 30 min. The fluorescence signal was recorded by using a Cary Eclipse fluorescence spectrophotometer (Varian, USA) with the following setting: excitation wavelength at 440 nm, emission wavelength at 480 nm, and slit width of 20 nm.
The Aβ1-42 solutions (100 μM) were co-incubated with B14 (20 μM) and Curcumin (20 μM) at 37 °C protected from light for 96 h. 30 μL of Aβ1-42 solutions were taken at different time points (0 h, 10 h, 24 h, 48 h, 72 h, 96 h), mixed fully with 400 μL of ThT solution (15 μM), and incubated in the dark for 30 min. The fluorescence signal was recorded by a Cary Eclipse fluorescence spectrophotometer (Varian, USA) with excitation wavelength at 440 nm, emission wavelength at 480 nm, and slit width of 20 nm.

The target in assay [4] is T1, Aβ1-42. The assay is described as follows: Congo red binding assay. The settings on record: 20 μM compound, 72 h. The assay is classed as biochemical. The protocol:
A total of 30 μM Congo red (Aladdin, Shanghai, China) solution (20 mM potassium phosphate, 50 mM NaCl, pH 7.4) was prepared and filtered with a 0.45 μm filter. The Aβ1-42 solutions (30 μM) were co-incubated with B14 (20 μM), A22 (20 μM), or Curcumin (20 μM) at 37 °C protected from light for 72h. The Aβ1-42 solution was mixed with equal volume of Congo red solution, followed by incubation for 30 min. A spectral region from 400 nm to 650 nm was measured by using a UV–vis spectrophotometer (AoE, China).
A total of 30 μM Congo red solution (20 mM potassium phosphate, 50 mM NaCl, pH 7.4) was prepared and filtered with a 0.45 μm filter. The Aβ1-42 solutions (30 μM) were co-incubated with B14 (20 μM) and Curcumin (20 μM) at 37 °C protected from light for 72h. The Aβ1-42 solution was mixed with equal volume of Congo red solution and incubated for 30 min. A spectral region from 400 nm to 650 nm was analyzed by using a UV-vis spectrophotometer (AoE, China).

Assay [5] deals with T1, Aβ1-42. The assay is described as follows: Dot blot of Aβ1-42 fibril aggregation. The assay is classed as biochemical. The settings on record: 20 μM compound, 24 h.
Experimental: After incubation at 37 °C for 24 h, 10 μL aliquots of 20 μM Aβ1-42 reaction mixtures were spotted onto nitrocellulose membranes. Membranes were blocked for 2 h with 5 % non-fat milk in TBS. After washing, membranes were incubated with the anti-Aβ fibril antibody (1:1,000, CST, USA) dissolved in TBS containing 3 % bovine serum albumin (BSA, Beyotime, Jiangsu, China) and 0.01 % Tween-20 (Solarbio, Beijing, China), and developed using an alkaline-phosphatase anti-rabbit secondary antibody (1:5,000, Proteintech, China). The bands were then detected using an enhanced chemiluminescence (ECL) kit (Millipore, USA).
After incubation at 37 °C for 24h, 10 μL aliquots of 20 μM Aβ1-42 reactions were spotted onto nitrocellulose membranes. The membranes were blocked for 2 h with 5% non-fat milk in TBS. After washing, the membranes were incubated with the anti-Aβ fibril antibody (1:1000 dilution) dissolved in TBS containing 3% BSA and 0.01% Tween-20, and then developed using an alkaline-phosphatase antirabbit secondary antibody (1:5000 dilution). Invitrogen's Western Breeze Chemiluminescent kit was used to visualize the protein dots, and these dots were imaged using a FUJIFILM Luminescent Image Analyzer LAS-1000CH.

T1 sequence (P05067 672-713 limits assumed): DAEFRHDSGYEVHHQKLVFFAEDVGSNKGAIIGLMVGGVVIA

A word on the KD: it is the constant that tells how readily two partners part at equilibrium. `CC1CCN(CCC(=O)Nc2ccc3c(c2)c(=O)c2ccccc2n3-c2ccc3occc3c2)CC1` showed a KD in assay [1] above 50 µM.
Compound `CCN(CC)CCC(=O)Nc1ccc2c(c1)c(=O)c1ccccc1n2-c1ccc2occc2c1` showed a KD in assay [1] above 50 µM.
`CN(C)CCC(=O)Nc1ccc2c(c1)c(=O)c1ccccc1n2-c1ccc2occc2c1` yielded a KD in assay [1] above 50 µM.
As to `CN1CCN(CCC(=O)Nc2ccc3c(c2)c(=O)c2ccccc2n3-c2ccc3occc3c2)CC1`, in assay [1], the KD was above 50 µM.
Same read-out and setting: the result for `CN1CCN(CCCNc2ccc3c(c2)c(=O)c2cc(NCCCN4CCN(C)CC4)ccc2n3-c2ccc3occc3c2)CC1` reads above 50 µM.
The term Kd denotes a measure of binding affinity in units of concentration. The compound `CCN(CC)CCCNc1ccc2c(c1)c(=O)c1ccccc1n2-c1ccc2occc2c1` [Compound A1] gave a Kd in assay [2] above 50 µM.
The compound `CN(C)CCCNc1ccc2c(c1)c(=O)c1ccccc1n2-c1ccc2occc2c1` [Compound A2] had a dissociation constant (KD) in assay [1] above 50 µM. Also, the Kd in assay [2] was above 50 µM.
`O=c1c2ccccc2n(-c2ccc3occc3c2)c2ccc(NCCN3CCNCC3)cc12` [Compound A3]: the KD in assay [1] was above 50 µM. In assay [2], this compound came in with a Kd above 50 µM.
With `CN1CCN(CCCNc2ccc3c(c2)c(=O)c2ccccc2n3-c2ccc3occc3c2)CC1` [Compound A4], in assay [1], the KD is above 50 µM. The same compound registered a Kd in assay [2] above 50 µM.
`O=c1c2ccccc2n(-c2ccc3occc3c2)c2ccc(NCCCN3CCOCC3)cc12` [Compound A5]: in assay [1], the KD is above 50 µM. Moreover, the Kd in assay [2] is above 50 µM.
`O=c1c2ccccc2n(-c2ccc3occc3c2)c2ccc(NCCN3CCOCC3)cc12` [Compound A6] gave a KD in assay [1] above 50 µM. This compound yielded a Kd in assay [2] above 50 µM.
In turn, `O=c1c2ccccc2n(-c2ccc3occc3c2)c2ccc(NCCCN3CCCC3)cc12` [Compound A7] gave a KD in assay [1] above 50 µM. The compound further gave a Kd in assay [2] above 50 µM.
Consider `CN(C)CCNc1ccc2c(c1)c(=O)c1ccccc1n2-c1ccc2occc2c1` [Compound A8], for which the KD in assay [1] was above 50 µM. This compound also gave a Kd in assay [2] above 50 µM.
`CCN(CC)CCNc1ccc2c(c1)c(=O)c1ccccc1n2-c1ccc2occc2c1` [Compound A9] displayed a KD in assay [1] of 34.1 µM. Further, the Kd in assay [2] is 34.1 µM.
As to `O=c1c2ccccc2n(-c2ccc3occc3c2)c2ccc(NCCc3ccccn3)cc12` [Compound A10], the dissociation constant KD in assay [1] was above 50 µM. In addition, in assay [2], the equilibrium dissociation constant (Kd) was above 50 µM.
On to `O=C(CCCN1CCOCC1)Nc1ccc2c(c1)c(=O)c1ccccc1n2-c1ccc2occc2c1` [Compound A11], for which the KD in assay [1] is above 50 µM. The same compound gave a Kd in assay [2] above 50 µM.
The compound `CC1CCN(C=CC(=O)Nc2ccc3c(c2)c(=O)c2ccccc2n3-c2ccc3occc3c2)CC1` [Compound A12] displayed a Kd in assay [2] above 50 µM.
Take `CCN(C=CC(=O)Nc1ccc2c(c1)c(=O)c1ccccc1n2-c1ccc2occc2c1)CC` [Compound A13]: the Kd in assay [2] is above 50 µM.
Regarding `CN(C)C=CC(=O)Nc1ccc2c(c1)c(=O)c1ccccc1n2-c1ccc2occc2c1` [Compound A14], the Kd in assay [2] was above 50 µM.
Still for that read-out and setting: the result for `CN1CCN(C=CC(=O)Nc2ccc3c(c2)c(=O)c2ccccc2n3-c2ccc3occc3c2)CC1` [Compound A15] reads above 50 µM.
Same read-out and setting: the result for `O=C(CCN1CCOCC1)Nc1ccc2c(c1)c(=O)c1ccccc1n2-c1ccc2occc2c1` [Compound A16] reads above 50 µM; that for `CCN(CC)CCCNc1ccc2c(c1)c(=O)c1cc(NCCCN(CC)CC)ccc1n2-c1ccc2occc2c1` [Compound B1], above 50 µM.
In the case of `CN(C)CCCNc1ccc2c(c1)c(=O)c1cc(NCCCN(C)C)ccc1n2-c1ccc2occc2c1` [Compound B2], the KD in assay [1] is above 50 µM. Also, the Kd in assay [2] was above 50 µM.
In the case of `O=c1c2cc(NCCN3CCNCC3)ccc2n(-c2ccc3occc3c2)c2ccc(NCCN3CCNCC3)cc12` [Compound B3], the KD in assay [1] is above 50 µM. In assay [2], this compound had a Kd above 50 µM.
In turn, `CN1CCN(CCCNc2ccc3c(c2)C(=O)c2cc(NCCCN4CCN(C)CC4)ccc2C3c2ccc3occc3c2)CC1` [Compound B4] yielded a Kd in assay [2] above 50 µM.
Take `O=c1c2cc(NCCCN3CCOCC3)ccc2n(-c2ccc3occc3c2)c2ccc(NCCCN3CCOCC3)cc12` [Compound B5]: the KD in assay [1] is above 50 µM. For the same compound, in assay [2], the dissociation constant Kd was above 50 µM.
In turn, `O=c1c2cc(NCCN3CCOCC3)ccc2n(-c2ccc3occc3c2)c2ccc(NCCN3CCOCC3)cc12` [Compound B6] came in with a KD in assay [1] above 50 µM. For the same compound, in assay [2], the Kd is above 50 µM.
Regarding `O=c1c2cc(NCCCN3CCCC3)ccc2n(-c2ccc3occc3c2)c2ccc(NCCCN3CCCC3)cc12` [Compound B7], in assay [1], the KD is above 50 µM. In assay [2], this compound came in with a Kd above 50 µM.
In turn, `CN(C)CCNc1ccc2c(c1)c(=O)c1cc(NCCN(C)C)ccc1n2-c1ccc2occc2c1` [Compound B8] had a KD in assay [1] above 50 µM. Besides, in assay [2], the Kd was above 50 µM.
`CCN(CC)CCNc1ccc2c(c1)c(=O)c1cc(NCCN(CC)CC)ccc1n2-c1ccc2occc2c1` [Compound B9] registered a KD in assay [1] above 50 µM. Besides, the Kd in assay [2] is above 50 µM.
The compound `O=c1c2cc(NCCc3ccccn3)ccc2n(-c2ccc3occc3c2)c2ccc(NCCc3ccccn3)cc12` [Compound B10] returned a KD in assay [1] above 50 µM. This compound came in with a Kd in assay [2] above 50 µM.
In assay [1], `O=C(CCCN1CCOCC1)Nc1ccc2c(c1)c(=O)c1cc(NC(=O)CCCN3CCOCC3)ccc1n2-c1ccc2occc2c1` [Compound B11] came in with a KD above 50 µM. The compound further displayed a Kd in assay [2] above 50 µM.
`O=C(CCN1CCCC1)Nc1ccc2c(c1)c(=O)c1cc(NC(=O)CCN3CCCC3)ccc1n2-c1ccc2occc2c1` [Compound B12]: the KD in assay [1] was above 50 µM. In assay [2], this compound yielded a Kd above 50 µM.
`CCN(CC)CCC(=O)Nc1ccc2c(c1)c(=O)c1cc(NC(=O)CCN(CC)CC)ccc1n2-c1ccc2occc2c1` [Compound B13] had a KD in assay [1] above 50 µM. Besides, the Kd in assay [2] is above 50 µM.
Take `COc1cc(/C=C/C(=O)CC(=O)/C=C/c2ccc(O)c(OC)c2)ccc1O` [Curcumin, reference compound]: in assay [3], the “decrease of ThT fluorescence intensity” value was 20.83 ± 1.68%. The “absorbance of Congo red in the Aβ1-42 sample” value in assay [4] is “some inhibitory effect, but much lower than B14”. Also, the “formation of Aβ fibers (dot blot)” value in assay [5] is on record as “relatively less significant effect compared with B14”.
